PubChem BioAssay AID330 (DTP/NCI, 2004)
Values joined by “and” are separate entries in the source; they are usually repeats but may differ in a detail not shown here. Equal entries are not always repeated. Toxic doses and inconclusive results are not listed. Numbered stars: 1 amine (or outer) side, 2 acyl side, 3 side chain; on linkers, the order of the positions; unused ones are H or OH. Bridge positions count the residues as written; N and C are the ends. Square brackets hold non-standard residues; d marks the D form. Peptide text beside a SMILES is read from it. ξ: configuration not given here. X1 = CC[C@@H](C)[C@H](N[*:1])[C@H](O)CC(=O)OC(C(=O)C(C)C(=O)[*:2])C(C)C; ξNMeY = CNC(Cc1ccc(O)cc1)C(=O)O; ξNMeL = CNC(CC(C)C)C(=O)O; ξL = CC(C)CC(N)C(=O)O; ξT = CC(O)C(N)C(=O)O; ξP = O=C(O)C1CCCN1

Tested on: P388 leukemia ip, CD2F1 mice, survival T/C
Assay: NCI In Vivo Anticancer Drug Screen. Data for tumor model P388 Leukemia (intraperitoneal) in CD2F1 (CDF1) mice
Conditions: endpoint: median survival time, higher = longer survival
How it was run: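 Mice carrying the transplanted tumor received test compound or vehicle. Survival was recorded in each group, and the value is the treated-group measurement divided by that of the vehicle-treated control group.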

[1] = dose: 50.0 mg/kg/injection, schedule: Q01DX005 (ip), vehicle: Klucel (hydroxypropylcellulose) (HPC)
[2] = dose: 100.0 mg/kg/injection, schedule: Q01DX005 (ip), vehicle: Klucel (hydroxypropylcellulose) (HPC)
[3] = dose: 200.0 mg/kg/injection, schedule: Q01DX005 (ip), vehicle: Klucel (hydroxypropylcellulose) (HPC)
[4] = dose: 50.0 mg/kg/injection, schedule: Q01DX009 (ip), vehicle: Klucel (hydroxypropylcellulose) (HPC)
[5] = dose: 100.0 mg/kg/injection, schedule: Q01DX009 (ip), vehicle: Klucel (hydroxypropylcellulose) (HPC)
[6] = dose: 50.0 mg/kg/injection, schedule: Q01DX005 (ip), vehicle: saline with Tween-80
[7] = dose: 100.0 mg/kg/injection, schedule: Q01DX005 (ip), vehicle: saline with Tween-80
[8] = dose: 200.0 mg/kg/injection, schedule: Q01DX005 (ip), vehicle: saline with Tween-80
[9] = dose: 50.0 mg/kg/injection, schedule: Q01DX005 (ip), vehicle: saline

CC1(C)CSC(=S)N1
T/C (dose: 2.5 mg/kg/injection, schedule: Q01DX009 (ip), vehicle: saline sonified): 109 % of control
T/C (dose: 5.0 mg/kg/injection, schedule: Q01DX009 (ip), vehicle: saline sonified): 100 % of control
T/C (dose: 10.0 mg/kg/injection, schedule: Q01DX009 (ip), vehicle: saline sonified): 100 % of control

c1c(-c2cc(C3CC3)[nH]n2)n[nH]c1C1CC1
T/C (dose: 60.0 mg/kg/injection, schedule: Q01DX005 (ip), vehicle: saline): 101 % of control
T/C (dose: 120.0 mg/kg/injection, schedule: Q01DX005 (ip), vehicle: saline): 97 % of control
T/C (dose: 240.0 mg/kg/injection, schedule: Q01DX005 (ip), vehicle: saline): 100 % of control

COc1cc(OC)c2c(c1)Oc1cc(OC)cc(OC)c1C2
T/C [1]: 97 % of control
T/C [2]: 96 % of control
T/C [3]: 95 % of control

COc1ccc(-c2cc(=O)c3c(O)cc(O)cc3o2)cc1Oc1ccc(-c2cc(=O)c3c(O)cc(O)cc3o2)cc1
T/C (dose: 60.0 mg/kg/injection, schedule: Q01DX005 (ip), vehicle: Klucel (hydroxypropylcellulose) (HPC)): 96 % of control
T/C (dose: 120.0 mg/kg/injection, schedule: Q01DX005 (ip), vehicle: Klucel (hydroxypropylcellulose) (HPC)): 96 % of control
T/C (dose: 240.0 mg/kg/injection, schedule: Q01DX005 (ip), vehicle: Klucel (hydroxypropylcellulose) (HPC)): 88 % of control

CC[C@@H](C)[C@@H]1NC(=O)C(NC(=O)C(CC(C)C)NC)C(C)OC(=O)C(Cc2ccc(OC)cc2)N(C)C(=O)C2CCCN2C(=O)C(CC(C)C)NC(=O)C(C)C(=O)C(C(C)C)OC(=O)C[C@H]1O (stereo partly specified) (H-[ξNMeL][ξT][X1][ξL][ξP][ξNMeY](Me); ester 2-C)
T/C (dose: 0.06 mg/kg/injection, schedule: Q01DX005 (ip), vehicle: water): 104 % of control
T/C (dose: 0.13 mg/kg/injection, schedule: Q01DX005 (ip), vehicle: water): 112 % of control
T/C (dose: 0.25 mg/kg/injection, schedule: Q01DX005 (ip), vehicle: water): 114 % of control
T/C (dose: 0.5 mg/kg/injection, schedule: Q01DX005 (ip), vehicle: saline + alcohol): 113 % of control
T/C (dose: 1.0 mg/kg/injection, schedule: Q01DX005 (ip), vehicle: saline + alcohol): 124 % of control
T/C (dose: 2.0 mg/kg/injection, schedule: Q01DX005 (ip), vehicle: water): 150 % of control
T/C (dose: 0.25 micrograms/kg/injection, schedule: Q01DX005 (ip), vehicle: saline + alcohol): 106 % of control
T/C (dose: 0.5 micrograms/kg/injection, schedule: Q01DX005 (ip), vehicle: saline + alcohol): 110 % of control
T/C (dose: 1.0 micrograms/kg/injection, schedule: Q01DX005 (ip), vehicle: saline + alcohol): 96 % of control
T/C (dose: 2.0 micrograms/kg/injection, schedule: Q01DX005 (ip), vehicle: saline + alcohol): 100 % of control

CC(=O)C1C(C)C(C(C)=O)N2C1SC1CCOC12C (stereo unspecified)
T/C (dose: 10.0 mg/kg/injection, schedule: Q01DX001 (ip), vehicle: suspension in saline): 106 % of control
T/C (dose: 20.0 mg/kg/injection, schedule: Q01DX001 (ip), vehicle: suspension in saline): 105 % of control
T/C (dose: 40.0 mg/kg/injection, schedule: Q01DX001 (ip), vehicle: suspension in saline): 101 % of control
T/C (dose: 80.0 mg/kg/injection, schedule: Q01DX001 (ip), vehicle: suspension in saline): 102 % of control

O=C1CCCC2c3[nH]c4ccccc4c3CCN12 (stereo unspecified)
T/C (dose: 100.0 mg/kg/injection, schedule: Q04DX002 (ip), vehicle: Klucel (hydroxypropylcellulose) (HPC)): 97 % of control
T/C (dose: 200.0 mg/kg/injection, schedule: Q04DX002 (ip), vehicle: Klucel (hydroxypropylcellulose) (HPC)): 100 % of control
T/C (dose: 400.0 mg/kg/injection, schedule: Q04DX002 (ip), vehicle: Klucel (hydroxypropylcellulose) (HPC)): 96 % of control

CN1C2(c3ccccc3)OC(=O)C1(c1ccccc1)C1C(=O)C3C4c5ccccc5C(c5ccccc54)C3C(=O)C12 (stereo unspecified)
T/C [4]: 94 % of control
T/C [5]: 100 % of control
T/C (dose: 200.0 mg/kg/injection, schedule: Q01DX009 (ip), vehicle: Klucel (hydroxypropylcellulose) (HPC)): 94 % of control

Nc1ccc2c(SCCSc3c4ccccc4nc4cc(N)ccc34)c3ccccc3nc2c1
T/C (dose: 60.0 mg/kg/injection, schedule: Q01DX005 (ip), vehicle: saline with Tween-80): 97 % of control
T/C (dose: 120.0 mg/kg/injection, schedule: Q01DX005 (ip), vehicle: saline with Tween-80): 100 % of control

CNCC(O)CC12CCC(c3ccccc31)c1ccccc12 (stereo unspecified)
T/C [4]: 104 % of control
T/C [5]: 106 % of control

Cc1cc2c(C(C)C)c(O)c(O)c(C=Nc3ccc(C(=O)NCC(=O)O)cc3)c2c(O)c1-c1c(C)cc2c(C(C)C)c(O)c(O)c(C=Nc3ccc(C(=O)NCC(=O)O)cc3)c2c1O
T/C [6]: 94 % of control
T/C [7]: 100 % of control

CCN(CC)OCC=C(C)CCC=C(C)C (mixture of isomers)
T/C (dose: 100.0 mg/kg/injection, schedule: Q04DX002 (ip), vehicle: saline with Tween-80): 111 % of control
T/C (dose: 200.0 mg/kg/injection, schedule: Q04DX002 (ip), vehicle: saline with Tween-80): 109 % of control
T/C (dose: 400.0 mg/kg/injection, schedule: Q04DX002 (ip), vehicle: saline with Tween-80): 108 % of control

COc1cc(/C=C/C(=O)c2ccc(OCc3ccccc3)cc2OC(C)=O)c(OC)c(OC)c1OC
T/C (dose: 100.0 mg/kg/injection, schedule: Q01DX001 (ip), vehicle: Klucel (hydroxypropylcellulose) (HPC)): 96 % of control
T/C (dose: 200.0 mg/kg/injection, schedule: Q01DX001 (ip), vehicle: Klucel (hydroxypropylcellulose) (HPC)): 94 % of control

CCCCCCCCCCCCCCCCOS(=O)(=O)O (tested in a mixture with another compound)
T/C (dose: 20.0 mg/kg/injection, schedule: Q01DX009 (ip), vehicle: saline with Tween-80): 99 % of control
T/C (dose: 40.0 mg/kg/injection, schedule: Q01DX009 (ip), vehicle: saline with Tween-80): 92 % of control

O=C1C2C3C=CC(C2C(=O)N1COP(=O)(O)O)C1C2C(=O)N(COP(=O)(O)O)C(=O)C2C31 (stereo unspecified)
T/C (dose: 20.0 mg/kg/injection, schedule: Q01DX009 (ip), vehicle: water): 112 % of control
T/C (dose: 40.0 mg/kg/injection, schedule: Q01DX009 (ip), vehicle: water): 112 % of control
T/C (dose: 80.0 mg/kg/injection, schedule: Q01DX009 (ip), vehicle: water): 112 % of control and 90 % of control
T/C (dose: 160.0 mg/kg/injection, schedule: Q01DX009 (ip), vehicle: water): 165 % of control
T/C (dose: 240.0 mg/kg/injection, schedule: Q01DX009 (ip), vehicle: water): 152 % of control

O=C(Cn1ccc(=O)[nH]c1=O)N1CCOCC1
T/C (dose: 100.0 mg/kg/injection, schedule: Q04DX003 (ip), vehicle: water): 100 % of control
T/C (dose: 200.0 mg/kg/injection, schedule: Q04DX003 (ip), vehicle: water): 100 % of control
T/C (dose: 400.0 mg/kg/injection, schedule: Q04DX003 (ip), vehicle: water): 100 % of control

O=C1NC(=O)C2(OC3c4ccccc4C=CN3C3=C2C(=O)CCC3)C(=O)N1 (stereo unspecified)
T/C [6]: 94 % of control
T/C [7]: 94 % of control
T/C [8]: 92 % of control

C/C(C#N)=C1/Nc2ccccc2NC1=O
T/C (dose: 25.0 mg/kg/injection, schedule: Q01DX009 (ip), vehicle: distilled water + Tween-80 + alcohol): 95 % of control
T/C (dose: 50.0 mg/kg/injection, schedule: Q01DX009 (ip), vehicle: distilled water + Tween-80 + alcohol): 88 % of control and 92 % of control
T/C (dose: 100.0 mg/kg/injection, schedule: Q01DX009 (ip), vehicle: distilled water + Tween-80 + alcohol): 91 % of control
T/C (dose: 200.0 mg/kg/injection, schedule: Q01DX009 (ip), vehicle: distilled water + Tween-80 + alcohol): 100 % of control

C=CCN(CC=C)CC(C)(O)CNc1cc(OC)cc2cccnc12 (stereo unspecified)
T/C [9]: 107 % of control
T/C (dose: 100.0 mg/kg/injection, schedule: Q01DX005 (ip), vehicle: saline): 101 % of control

COc1ccc2c3c(ccc2c1)CC1CCCN1C3 (stereo unspecified)
T/C (dose: 50.0 mg/kg/injection, schedule: Q01DX005 (ip), vehicle: other): 116 % of control
T/C (dose: 100.0 mg/kg/injection, schedule: Q01DX005 (ip), vehicle: other): 104 % of control

CCCCCCCCCCCCOCC(O)Cn1cnc2c(N)ncnc21 (stereo unspecified)
T/C [1]: 98 % of control
T/C [2]: 94 % of control
T/C [3]: 94 % of control

NC(CCC(=O)NC(CSSCC(NC(=O)CCC(N)C(=O)O)C(=O)O)C(=O)O)C(=O)O (stereo unspecified)
T/C (dose: 12.5 mg/kg/injection, schedule: Q01DX005 (ip), vehicle: saline): 94 % of control
T/C (dose: 25.0 mg/kg/injection, schedule: Q01DX005 (ip), vehicle: saline): 99 % of control
T/C [9]: 99 % of control

Cc1ccc(S(=O)(=O)NC(=O)Nn2c(C)nc3ccccc3c2=O)cc1
T/C [1]: 103 % of control
T/C [2]: 102 % of control
T/C [3]: 106 % of control

O=C1Nc2ccc3[nH]ncc3c2C1=O
T/C [6]: 101 % of control
T/C [7]: 103 % of control
T/C [8]: 109 % of control
